What was measured:
[1] = tested on: selectively-bred alcohol preferring rats; test: Alcohol Preferring Rats In Vivo Model (two-bottle choice); parameters: species or system rat; conditions: for 6 hr Ethanol (alcohol intake) / 6 hr Preference (alcohol preference): 6 h after administration; for 6 hr Ethanol (alcohol intake) / 6 hr Preference (alcohol preference) / 24 hr Ethanol (alcohol intake) / 24 hr Preference (alcohol preference): mean ± SEM; for 24 hr Ethanol (alcohol intake) / 24 hr Preference (alcohol preference): 24 h after administration
Method: Adult male selectively-bred alcohol preferring rats (which are known in the art to be useful for the study of the effect of test compounds on vountary alcohol intake) were grouped into three groups: vehicle and Compound #8 (50 and 100 mg/kg, po). Rats were housed individually in wire mesh cages under a constant room temperature of 22±1° C. and 12:12 light-dark cycle (8:00-20:00, dark). The animals were fed Agway Prolab Rat/Mouse/ Hamster 3000 formula and water ad libitum.
Alcohol intake was determined using the standard two-bottle choice method. Animals were first given free access to water in a graduated Richter tube for 2 days. Then they were given access to only a solution of 10% (v/v) ethanol for 3 consecutive days. During this period animals became accustomed to drinking from Richter tubes and to the taste and pharmacological effects of alcohol. Thereafter, they were given free access to both water and a solution of 10% alcohol for at least 4 consecutive weeks and throughout the study period. Rats had free access to food. Water and alcohol intake were recorded at 4, 6 and 24 hours after the treatment, whereas food intake was measured at 24 hour. Animals' body weight was measured every day.
After establishment of a stable baseline for alcohol, food, and water intake, rats were administered either vehicle or Compound #8 via oral gavage using a cross-over design with random assignment. To be able to compare the efficacy of these compounds on alcohol intake with an established FDA-approved drug, naltrexone, was included as a positive control. Same rats were given an oral dose of naltrexone (20mg/kg). The interval between treatments was at least 3 days. Alcohol and water intake were recorded 4, 6 and 24 h after the drug administration and food intake was recorded at 24 hr. A total of 8-10 animals per group were used.
The results below are presented as means ±SEM. Alcohol intake (g/kg) was calculated by multiplying the volume of alcohol consumed in ml by 10% and 0.7893 (ethanol density)/body weight in kg. Alcohol preference, expressed as percentage, was calculated as follows: (volume of alcohol consumed in ml/total fluid intake in ml)×100 (Rezvani and Grady, 1994; Rezvani et al., 1997). Statistical differences between drug-treated and control groups were determined by using ANOVA and Turkey Student's t test for multiple comparison.

NS(=O)(=O)NCC1CCc2ccccc2O1 (stereo not drawn)
melting point: 100 to 101 °C

NS(=O)(=O)NCCC1COc2ccccc2O1 (stereo not drawn)
melting point: 101 to 103 °C

NS(=O)(=O)NC[C@H]1COc2cc(Cl)c(Cl)cc2O1
melting point: 119 to 121 °C

CN(C)S(=O)(=O)NCC1COc2ccccc2O1 (racemic)
melting point: 76 to 78 °C

CN(CC1COc2ccccc2O1)S(N)(=O)=O (racemic)
melting point: 97 to 98 °C

NS(=O)(=O)NC[C@H]1COc2cc(Cl)ccc2O1 [Compound #8, (2S)-(−)-N-(6-Chloro-2,3-dihydro-benzo[1,4]dioxin-2-ylmethyl)-sulfamide]
6 hr Ethanol (alcohol intake) ([1]; 50 mg/kg po): 1.28 ± 0.25 g/kg | 6 hr Preference (alcohol preference) ([1]; 50 mg/kg po): 67 ± 11% | 24 hr Ethanol (alcohol intake) ([1]; 50 mg/kg po): 4.79 ± 0.5 g/kg | 24 hr Preference (alcohol preference) ([1]; 50 mg/kg po): 77 ± 7% | 6 hr Ethanol (alcohol intake) ([1]; 100 mg/kg po): 1.33 ± 0.17 g/kg | 6 hr Preference (alcohol preference) ([1]; 100 mg/kg po): 75 ± 8% | 24 hr Ethanol (alcohol intake) ([1]; 100 mg/kg po): 4.35 ± 0.66 g/kg | 24 hr Preference (alcohol preference) ([1]; 100 mg/kg po): 70 ± 9% | effect on ethanol consumption ([1]; alcohol-preferring rats, 6 h post-dosing, 50 and 100 mg/kg dose): decreased ethanol consumption

O=C1CC[C@@]2(O)[C@H]3Cc4ccc(O)c5c4[C@@]2(CCN3CC2CC2)[C@H]1O5 [Naltrexone, naltrexone, reference compound]
6 hr Ethanol (alcohol intake) ([1]; 20 mg/kg oral): 0.77 ± 0.24 g/kg | 6 hr Preference (alcohol preference) ([1]; 20 mg/kg oral): 64 ± 12% | 24 hr Ethanol (alcohol intake) ([1]; 20 mg/kg oral): 4.48 ± 0.57 g/kg | 24 hr Preference (alcohol preference) ([1]; 20 mg/kg oral): 76 ± 9%

Source: patent US8691867B2, “Use of benzo-fused heterocycle sulfamide derivatives for the treatment of substance abuse and addiction” (Janssen Pharmaceutica NV, priority 2005, dated 2014)
